Key:
intracellular CK2α = target: T1, intracellular CK2α (Homo sapiens, UniProt P19784); assay: Cell-based NanoBRET assay for inhibitor binding to intracellular CK2α; settings: HCT116 cells transiently transfected with CSNK2A2-NanoLuc fusion vector; Tracer K-5; 2 h; read-out: Assay 3: NanoBRET ™ assay for binding to intracellular CK2α
T1 construct: host or cells: HCT116 (ATCC CCL-247)
Method: This assay used the NanoBRET™ System (Promega), an energy transfer technique designed to measure molecular proximity in living cells. The assay measured the apparent affinity of test compounds by competitive displacement of a NanoBRET™ tracer reversibly bound to a NanoLucR luciferase CK2α fusion protein in cells. A fixed concentration of tracer was added to cells expressing the desired NanoLucR-CK2α fusion protein to generate a BRET reporter complex. […] Donor emission wavelength (450 nm) and acceptor emission wavelength (610 nm or 630 nm) were measured on the Envision (Perkin-Elmer) and BRET ratio calculated for data analysis: BRET Ratio=(Acceptorsample/Donorsample)×1,000. • 7.

CK2α = target: T2, CK2α (Homo sapiens, UniProt P68400); assay: Biochemical assay for inhibitors of CK2α kinase activity (ADP-Glo); settings: 0.2 nM CK2α, 50 μM peptide substrate, 15 μM ATP, read-out: Assay 1: CK2α Enzyme IC50
T2 construct: CK2α (residues 2-329) was produced in Escherichia coli BL21 (DE3) for kinase activity screening; His6 (N, cleaved yes); made in house; host or cells: Escherichia coli BL21 (DE3)
T2 sequence (P68400 2-329): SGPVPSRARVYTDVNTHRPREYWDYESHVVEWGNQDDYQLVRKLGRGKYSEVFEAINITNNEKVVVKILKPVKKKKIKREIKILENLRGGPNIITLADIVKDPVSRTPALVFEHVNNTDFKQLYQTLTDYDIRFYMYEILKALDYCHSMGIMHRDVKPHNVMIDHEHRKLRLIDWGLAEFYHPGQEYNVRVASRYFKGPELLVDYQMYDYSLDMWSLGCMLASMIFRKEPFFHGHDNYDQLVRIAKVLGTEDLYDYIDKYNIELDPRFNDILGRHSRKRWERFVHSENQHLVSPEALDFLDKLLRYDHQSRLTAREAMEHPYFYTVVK
Method: The inhibitory activity of putative kinase inhibitors and the potency of selected compounds were determined using ADP-Glo™ assay. The kinase reaction was performed in the presence of excess peptide substrate and ATP at a concentration equivalent to Km. Upon termination of the kinase reaction, remaining ATP was depleted leaving only ADP reaction product, which was converted back to ATP with a coupled luciferin/luciferase reaction. The luminescent output from the coupled reaction was quantified and correlated with the kinase activity. […] Single colonies of the cells were grown in 6×1 L of 2×TY with 100 μg/mL ampicillin at 37° C. […] The cells were incubated overnight at 25° C. then harvested by centrifugation at 4,000 g for 20 minutes. The cell pellets were suspended in 20 mM Tris, 500 mM NaCl, pH 8.0 and lysed using a high pressure homogenizer. Protease inhibitor cocktail tablets (one tablet per 50 mL extract; Roche Diagnostics) and DNase I were then added. The crude cell extract was then centrifuged at 10,000 g for 45 minutes, the supernatant was filtered with a 0.22 μm filter. The soluble supernatant was applied on a Ni Sepharose Fast Flow6 column at pH 8.0, washed and eluted in 20 mM Tris pH 8.0, 500 mM NaCl, 200 mM imidazole. […] The cleaved protein was further purified on a Sepharose Q HP anion-exchange column and the main peak fraction from this column was further purified by gel filtration on a Superdex 75 16/60 HiPrep column equilibrated with Tris 20 mM, pH 8.0, 500 mM NaCl. Pure protein was concentrated to 15 mg/mL and flash frozen in liquid nitrogen. […] The assay was conducted as follows: • 1. […] After 120 minutes, the reaction was stopped by addition of 5 pl ADP-Glo reagent (Promega V9102) and the plate incubated at RT for a further 60 minutes. • 5. 10 μL of Kinase Detection reagent (Promega V9102) was added to assay plate and incubated for a further 30 minutes prior to reading luminescence on an Envision (Perkin-Elmer). Data was analysed to calculate compound IC50and Ki as follows: • 1. […] Percent activity was calculated for each well using: (Test well reading−MEAN100%inhibition control wells)/(MEAN0% inhibition control wells−MEAN100%inhibition control wells). • 5. Morrison Ki was determined using Morrison Ki equation (XL-fit).

CLK2 = target: T3, CLK2 (Homo sapiens, UniProt P49760); assay: Biochemical assay for inhibitors of CLK2 kinase activity (ADP-Glo); settings: 20 nM CLK2, 50 μM peptide substrate, 100 μM ATP, read-out: Assay 2: CLK2 Enzyme IC50
T3 construct: purchased Carna Biosciences 04-127
T3 sequence (P49760 whole entry): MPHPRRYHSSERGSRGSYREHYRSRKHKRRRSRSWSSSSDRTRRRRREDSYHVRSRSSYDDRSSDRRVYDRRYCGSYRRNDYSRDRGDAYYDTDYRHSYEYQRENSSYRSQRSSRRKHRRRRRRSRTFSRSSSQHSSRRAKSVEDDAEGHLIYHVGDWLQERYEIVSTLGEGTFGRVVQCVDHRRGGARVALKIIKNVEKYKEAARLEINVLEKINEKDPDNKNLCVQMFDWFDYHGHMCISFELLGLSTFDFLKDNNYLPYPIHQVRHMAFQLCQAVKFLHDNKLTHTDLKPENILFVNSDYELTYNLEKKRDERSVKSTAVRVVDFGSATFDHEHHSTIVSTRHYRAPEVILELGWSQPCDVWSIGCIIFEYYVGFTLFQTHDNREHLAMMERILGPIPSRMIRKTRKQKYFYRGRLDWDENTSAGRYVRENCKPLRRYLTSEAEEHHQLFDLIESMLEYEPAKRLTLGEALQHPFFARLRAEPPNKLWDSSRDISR
Method: The inhibitory activity of putative kinase inhibitors and the potency of selected compounds were determined using ADP-GloTM assay. The kinase reaction was performed in the presence of excess peptide substrate and ATP at a concentration equivalent to Km. Upon termination of the kinase reaction, remaining ATP was depleted leaving only ADP reaction product, which was converted back to ATP with a coupled luciferin/luciferase reaction. The luminescent output from the coupled reaction was quantified and correlated with the kinase activity. […] The assay was conducted as follows: • 1. […] After 120 minutes, the reaction was stopped by addition of 5 pl ADP-Glo reagent (Promega V9102) and the plate incubated at RT for a further 60 minutes. • 5. 10 μL of Kinase Detection reagent (Promega V9102) was added to assay plate and incubated for a further 30 minutes prior to reading luminescence on an Envision (Perkin-Elmer). Data was analysed to calculate compound IC50and Ki as follows: • 1. […] Morrison Ki was determined using Morrison Ki equation (XL-fit).

T1 sequence (P19784 whole entry, the tested form may be a part): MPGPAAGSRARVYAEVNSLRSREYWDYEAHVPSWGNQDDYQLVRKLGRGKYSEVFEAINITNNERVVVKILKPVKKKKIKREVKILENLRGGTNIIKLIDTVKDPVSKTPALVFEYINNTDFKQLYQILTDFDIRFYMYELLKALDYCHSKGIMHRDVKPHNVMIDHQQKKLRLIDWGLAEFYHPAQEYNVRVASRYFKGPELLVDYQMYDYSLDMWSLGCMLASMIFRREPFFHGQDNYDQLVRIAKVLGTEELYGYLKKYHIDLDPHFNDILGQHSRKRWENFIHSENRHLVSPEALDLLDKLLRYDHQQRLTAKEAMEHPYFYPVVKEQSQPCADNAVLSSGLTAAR

SMILES	IC50 (intracellular CK2α) [nM]	IC50 (CK2α) [nM]	IC50 (CLK2) [nM]
O=C(CCNCc1cccc(CO)c1)NCCCNc1cc(-n2cnnc2)cc2[nH]ncc12 [Example 35, N-(3-((6-(4H-1,2,4-triazol-4-yl)-1H-indazol-4-yl)amino)propyl)-3-((3-(hydroxymethyl)benzyl)amino)propanamide]	> 50000	17.5	112
N#Cc1cc(CNCCC(=O)NCCCNc2cc(-n3cnnc3)cc3[nH]ncc23)ccc1OC1CCC1 [Example 39, N-(3-((6-(4H-1,2,4-triazol-4-yl)-1H-indazol-4-yl)amino)propyl)-3-((3-cyano-4-cyclobutoxybenzyl)amino)propanamide]	2080	0.28	63.3
O=C(CCNCc1cccc(CCO)c1)NCCCNc1cc(-n2cnnc2)cc2[nH]ncc12 [Example 40, N-(3-((6-(4H-1,2,4-triazol-4-yl)-1H-indazol-4-yl)amino)propyl)-3-((3-(2-hydroxyethyl)benzyl)amino)propanamide]	> 50000	9.06	87.5
O=C(CCNCc1ccc(OC2CCC2)c(CO)c1)NCCCNc1cc(-n2cnnc2)cc2[nH]ncc12 [Example 41, N-(3-((6-(4H-1,2,4-triazol-4-yl)-1H-indazol-4-yl)amino)propyl)-3-((4-cyclobutoxy-3-(hydroxymethyl)benzyl)amino)propanamide]	7620	0.58	78.1
O=C(COCCCCNCc1ccc(OC(F)(F)F)c(Cl)c1)Nc1cc(-n2cnnc2)cc2[nH]ncc12 [Example 48, N-(6-(4H-1,2,4-triazol-4-yl)-1H-indazol-4-yl)-2-(4-((3-chloro-4-(trifluoromethoxy)benzyl)amino)butoxy)acetamide]	2750	20.3	993
FC(F)(F)c1ccc2[nH]c(CNCCCCOCCNc3cc(-n4cnnc4)cc4[nH]ncc34)cc2c1 [Example 49, 6-(4H-1,2,4-triazol-4-yl)-N-(2-(4-(((5-(trifluoromethyl)-1H-indol-2-yl)methyl)amino)butoxy)ethyl)-1H-indazol-4-amine]	106	0.44	90.5
Cn1c(CNCCCCOCCNc2cc(-n3cnnc3)cc3[nH]ncc23)cc2ccc(Cl)cc21 [Example 50, N-(2-(4-(((6-chloro-1-methyl-1H-indol-2-yl)methyl)amino)butoxy)ethyl)-6-(4H-1,2,4-triazol-4-yl)-1H-indazol-4-amine]	153	2.2	94
Cn1c(CNCCCCOCCNc2cc(-n3cnnc3)cc3[nH]ncc23)cc2cc(C(F)(F)F)ccc21 [Example 51, N-(2-(4-(((1-methyl-5-(trifluoromethyl)-1H-indol-2-yl)methyl)amino)butoxy)ethyl)-6-(4H-1,2,4-triazol-4-yl)-1H-indazol-4-amine]	72.1	0.71	225

Next, values leading:

IC50 (intracellular CK2α) [nM]	IC50 (CK2α) [nM]	IC50 (CLK2) [nM]	SMILES
9890	3.32	70.8	O=C(CCNCc1n[nH]c(-c2ccccc2)c1Cl)NCCCNc1cc(-n2cnnc2)cc2[nH]ncc12 [Example 34, N-(3-((6-(4H-1,2,4-triazol-4-yl)-1H-indazol-4-yl)amino)propyl)-3-(((4-chloro-5-phenyl-1H-pyrazol-3-yl)methyl)amino)propanamide]
1400	1.39	48.9	Cn1c(CNCCC(=O)NCCCNc2cc(-n3cnnc3)cc3[nH]ncc23)cc2ccc(Cl)cc21 [Example 36, N-(3-((6-(4H-1,2,4-triazol-4-yl)-1H-indazol-4-yl)amino)propyl)-3-(((6-chloro-1-methyl-1H-indol-2-yl)methyl)amino)propanamide]
960	0.78	30.7	O=C(CCNCc1cc2ccc(Cl)cc2[nH]1)NCCCNc1cc(-n2cnnc2)cc2[nH]ncc12 [Example 37, N-(3-((6-(4H-1,2,4-triazol-4-yl)-1H-indazol-4-yl)amino)propyl)-3-(((6-chloro-1H-indol-2-yl)methyl)amino)propanamide]
792	0.53	121	Cn1c(CNCCC(=O)NCCCNc2cc(-n3cnnc3)cc3[nH]ncc23)cc2cc(C(F)(F)F)ccc21 [Example 38, N-(3-((6-(4H-1,2,4-triazol-4-yl)-1H-indazol-4-yl)amino)propyl)-3-(((1-methyl-5-(trifluoromethyl)-1H-indol-2-yl)methyl)amino)propanamide]
> 50000	6.94	83.8	O=C(CCNCc1cccc(OCCO)c1)NCCCNc1cc(-n2cnnc2)cc2[nH]ncc12 [Example 42, N-(3-((6-(4H-1,2,4-triazol-4-yl)-1H-indazol-4-yl)amino)propyl)-3-((3-(2-hydroxyethoxy)benzyl)amino)propanamide]
20200	0.62	38.4	O=C(CCNCc1cc(Cl)cc(CO)c1)NCCCNc1cc(-n2cnnc2)cc2[nH]ncc12 [Example 43, N-(3-((6-(4H-1,2,4-triazol-4-yl)-1H-indazol-4-yl)amino)propyl)-3-((3-chloro-5-(hydroxymethyl)benzyl)amino)propanamide]
16800	1.46	39.6	O=C(CCNCc1ccc(OC(F)(F)F)c(CO)c1)NCCCNc1cc(-n2cnnc2)cc2[nH]ncc12 [Example 44, N-(3-((6-(4H-1,2,4-triazol-4-yl)-1H-indazol-4-yl)amino)propyl)-3-((3-(hydroxymethyl)-4-(trifluoromethoxy)benzyl)amino)propanamide]
6380	0.95	123	N#Cc1cc(CNCCC(=O)NCCCNc2cc(-n3cnnc3)cc3[nH]ncc23)ccc1C1CC1 [Example 45, N-(3-((6-(4H-1,2,4-triazol-4-yl)-1H-indazol-4-yl)amino)propyl)-3-((3-cyano-4-cyclopropylbenzyl)amino)propanamide]
13400	2.65	237	N#Cc1cc(CNCCC(=O)NCCCNc2cc(-n3cnnc3)cc3[nH]ncc23)ccc1OC(F)(F)F [Example 46, N-(3-((6-(4H-1,2,4-triazol-4-yl)-1H-indazol-4-yl)amino)propyl)-3-((3-cyano-4-(trifluoromethoxy)benzyl)amino)propanamide]
12000	2.65	133	N#CCc1cccc(CNCCC(=O)NCCCNc2cc(-n3cnnc3)cc3[nH]ncc23)c1 [Example 47, N-(3-((6-(4H-1,2,4-triazol-4-yl)-1H-indazol-4-yl)amino)propyl)-3-((3-(cyanomethyl)benzyl)amino)propanamide]

Reference: patent US20260085062A1, “NOVEL COMPOUNDS AS CK2 INHIBITORS” (Cambridge Enterprise Limited, priority 2022, published 2026)
